# Test results taken from patent publication US12564572B2, “Topical ocular delivery of cromakalim” (QLARIS BIO, INC., priority 2022, dated 2026).
# Experiments:
# [1] = tested on: patients with primary open-angle glaucoma; conditions: cited from earlier work
# rabbit eyes = conditions: 0.5% cromakalim in 0.02 M phosphate buffer; cited from earlier work
# KATP channels = conditions: in the presence of ATP; cited from earlier work
# Dutch Belted rabbits = assay: 28 day repeated dose toxicology and toxicokinetic study by ocular topical administration in Dutch Belted rabbits (Example 12); conditions: rabbit, in vivo, topical or ocular; for Tmax: male
# Experimental: Plasma concentrations of levcromakalim were evaluated in DB rabbits after twice a day (BID) oculus uterque (OU, both eyes) topical ophthalmic (T.O.) administration of formulation 3d for 28 days at dose levels of 0, 0.012, 0.03, and 0.06 mg/eye/dose.
# Plasma concentrations of levcromakalim were evaluated in DB rabbits after BID OU T.O. administration of three concentrations of formulation 3d at dose levels of 0, 0.012, 0.03, and 0.06 mg/eye/dose (0, 0.024, 0.06, and 0.12 mg/eye/day respectively or 0.030% [1.0 mM], 0.075% [2.5 mM], or 0.15% [5 mM] respectively) for 28 days. Plasma was collected from 3 animals/dose group at pre-dose, 0.5, 1, 2, 3, 4, 6, and 12 hours post-first dose on Days 1 and 28.
compound,measurement,setting,value
CC1(C)Oc2ccc(C#N)cc2[C@@H](N2CCCC2=O)[C@@H]1OP(=O)(O)O [QLS-101],Hyperemia (eye redness),[1]; in vivo,no evidence of hyperemia
same,Efficacy,[1]; patients with primary open-angle glaucoma,positive efficacy signal
CC1(C)Oc2ccc(C#N)cc2C(N2CCCC2=O)C1O (centres unmarked) [cromakalim],Effect on IOP after topical administration,rabbit eyes,tended to increase IOP
same,Increase of open-state probability (Popen) of single KATP channels,KATP channels,more than 9 fold
CC1(C)Oc2ccc(C#N)cc2[C@@H](N2CCCC2=O)[C@@H]1O [levcromakalim],AUCtlast,"Dutch Belted rabbits; female, 0.03 mg",3.99 ng·h/mL
same,t1/2,"Dutch Belted rabbits; female, 0.06 mg",1.77
same,Tmax,Dutch Belted rabbits; 0.012 mg,70.2 min
same,Tmax,Dutch Belted rabbits; 0.06 mg,42 min
